The source of these data is patent US4897483A, “Amino acid derivatives as antihypertensives” (Asahi Breweries Ltd., priority 1987, dated 1990).

pIC50: −log10 of the molar value.

The subject of assay [1] is pressor response to Angiotensin I (AI). Briefly: Inhibition of the pressor response to angiotensin I after i.v. administration, area under the AI inhibition response vs. time curve. It counts as in vivo. Set-up: unit not given beside the values. The conditions noted are these: test compound 50 μg/Kg i.v.; AI 300 ng/Kg into femoral vein; 0 to 360 min. The method, then: **Angiotensin I (AI, 300 ng/Kg) were injected into the femoral vein at
intervals of 10 min until the constant pressor response to AI was
180, 300 and 360 min after i.v. administration of the test compound (50
μg/Kg), and AVC (area under the curve) was calculated by the AI
inhibition response vs. time curves for 0 to 360 min.

Assay [2] addresses T1, rabbit lung ACE (Oryctolagus cuniculus, UniProt P12822).
T1 construct: activity of rabbit lung ACE; from tissue; host or cells: rabbit lung
T1 sequence (P12822 34-1310): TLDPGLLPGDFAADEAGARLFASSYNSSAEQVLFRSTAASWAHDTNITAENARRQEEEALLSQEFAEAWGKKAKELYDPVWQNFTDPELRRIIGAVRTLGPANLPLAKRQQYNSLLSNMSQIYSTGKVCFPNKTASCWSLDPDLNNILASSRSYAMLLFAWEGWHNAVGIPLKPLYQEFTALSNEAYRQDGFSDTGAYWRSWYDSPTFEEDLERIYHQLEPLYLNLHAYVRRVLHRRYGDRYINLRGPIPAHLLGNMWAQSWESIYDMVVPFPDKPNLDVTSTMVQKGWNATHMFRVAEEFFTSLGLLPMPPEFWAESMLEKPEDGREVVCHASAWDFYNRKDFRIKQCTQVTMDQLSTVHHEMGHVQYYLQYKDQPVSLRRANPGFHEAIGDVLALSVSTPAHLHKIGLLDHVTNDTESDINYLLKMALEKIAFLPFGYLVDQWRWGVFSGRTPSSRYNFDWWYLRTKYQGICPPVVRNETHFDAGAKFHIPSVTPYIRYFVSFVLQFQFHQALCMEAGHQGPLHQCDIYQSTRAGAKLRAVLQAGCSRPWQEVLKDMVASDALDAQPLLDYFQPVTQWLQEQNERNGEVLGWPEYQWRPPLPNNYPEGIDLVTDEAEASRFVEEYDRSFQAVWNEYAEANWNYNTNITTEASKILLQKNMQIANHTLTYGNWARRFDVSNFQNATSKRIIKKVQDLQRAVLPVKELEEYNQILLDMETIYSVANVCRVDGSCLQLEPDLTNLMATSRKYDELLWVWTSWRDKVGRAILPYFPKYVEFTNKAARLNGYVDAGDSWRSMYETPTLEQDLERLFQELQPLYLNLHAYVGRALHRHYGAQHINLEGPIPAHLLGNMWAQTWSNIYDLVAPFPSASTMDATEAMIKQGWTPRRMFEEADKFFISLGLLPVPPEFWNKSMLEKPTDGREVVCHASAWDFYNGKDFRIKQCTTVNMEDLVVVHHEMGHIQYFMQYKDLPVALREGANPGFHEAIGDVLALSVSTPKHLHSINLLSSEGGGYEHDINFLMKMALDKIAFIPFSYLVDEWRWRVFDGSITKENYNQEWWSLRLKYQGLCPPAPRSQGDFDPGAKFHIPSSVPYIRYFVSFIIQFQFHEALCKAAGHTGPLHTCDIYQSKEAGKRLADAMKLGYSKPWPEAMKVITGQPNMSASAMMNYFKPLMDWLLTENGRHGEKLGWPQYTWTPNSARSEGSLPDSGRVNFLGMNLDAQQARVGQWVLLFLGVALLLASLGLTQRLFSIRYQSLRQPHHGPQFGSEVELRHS
As to the kind of experiment: Inhibition of rabbit lung ACE by the method of Friedland and Silverstein. It is filed as biochemical. To be noted: read-out: IC50 (concentration inhibiting 50% of the activity of rabbit lung ACE). On the procedure: The evaluation of converting enzyme inhibitors is introduced from the analysis of enzyme inhibition in a test tube. One example of inhibition activity of the compounds of the present invention calculated from the method of Friedland & Silverstein [Am. J. Clin. Pathol.
*Concentration inhibiting 50% of the activity of rabbit lung ACE was
determined by the method of Friedland and Silverstein.

For `C[C@H](N[C@@H](CCCCCCCN)C(=O)O)C(=O)N1CCC[C@H]1C(=O)O` [Compound 1, N-[1(S)-carboxy-8-aminooctyl]-L-alanyl-L-proline], the “(iv) AUC (area under the AI inhibition response vs. time curve)” value in assay [1] worked out at 509. For the same compound, the pIC50 in assay [2] was 9.12.
The corresponding values for `C[C@H](N[C@@H](CCCCC1CCNCC1)C(=O)O)C(=O)N1CCC[C@H]1C(=O)O` [Compound 2, N-[1(S)-carboxy-5-(4-piperidyl)pentyl]-L-alanyl-L-proline] are 429 and 9.00.
The corresponding values for `C[C@H](N[C@@H](CCCCCC1CCNCC1)C(=O)O)C(=O)N1CCC[C@H]1C(=O)O` [Compound 3, N-[1(S)-carboxy-6-(4-piperidyl)hexyl]-L-alanyl-L-proline] are 424 and 8.96.
`NCCCCCCC[C@H](N[C@@H](CCCCN)C(=O)N1CCC[C@H]1C(=O)O)C(=O)O` [Compound 4, N^α -[1(S)-carboxy-8-aminooctyl]-L-lysyl-L-proline]: the “(iv) AUC (area under the AI inhibition response vs. time curve)” value in assay [1] was 431. Besides, in assay [2], the pIC50 is 9.15.
As to `NCCCC[C@H](N[C@@H](CCCCC1CCNCC1)C(=O)O)C(=O)N1CCC[C@H]1C(=O)O` [Compound 5, N^α -[1(S)-carboxy-5-(4-piperidyl)pentyl]-L-lysyl-L-proline], the “(iv) AUC (area under the AI inhibition response vs. time curve)” value in assay [1] amounted to 460. In assay [2], the pIC50 is 9.00.
Take `NCCCC[C@H](N[C@@H](CCCCCC1CCNCC1)C(=O)O)C(=O)N1CCC[C@H]1C(=O)O` [Compound 9, N^α -[1(S)-carboxy-6-(4-piperidyl)hexyl]-L-lysyl-L-proline]: the pIC50 in assay [2] is 9.00.
Take `C[C@H](N[C@@H](CCCCCC1CCNCC1)C(=O)O)C(=O)N1[C@H](C(=O)O)C[C@@H]2CCCC[C@@H]21` [Compound 10, 1-[N-[1(S)-carboxy-6-(4-piperidyl)hexyl]-L-alanyl]-(2α,3aβ,7aβ)-octahydro-1H-indole-2(S)-carboxylic acid]: the pIC50 in assay [2] is 9.05.
As to `C[C@H](N[C@@H](CCCCC1CCNCC1)C(=O)O)C(=O)N1[C@H](C(=O)O)C[C@@H]2CCCC[C@@H]21` [Compound 11, 1-[N-[1(S)-carboxy-5-(4-piperidyl)pentyl]-L-alanyl]-(2α,3aβ,7aβ)-octahydro-1H-indole-2(S)-carboxylic acid], the pIC50 in assay [2] is 9.21.
Take `CC(NC(CCCCCCN)C(=O)O)C(=O)N1CCCC1C(=O)O` (stereo not drawn) [Compound 12, reference compound]: the “(iv) AUC (area under the AI inhibition response vs. time curve)” value in assay [1] is reported as 368. Moreover, the pIC50 in assay [2] was 8.85.
